In patent publication US20100130737A1, “Regulating Agent of GPR34 Receptor Function” (TAKEDA PHARMACEUTICAL COMPANY LIMITED, priority 2005, published 2010) one finds melting point data, which are given here for 37 compounds.

Consider `N#Cc1ccc(COc2ccc(C[C@H](NC(=O)c3cc4ccc(-c5ccc(Cl)cc5)cc4o3)C(=O)O)cc2)cc1` [Example C160, N-{[6-(4-Chlorophenyl)-1-benzofuran-2-yl]carbonyl}-O-(4-cyanobenzyl)tyrosine], for which the melting point stood at 204 °C.

For `CCc1ccc(COc2ccc(C[C@H](NC(=O)c3cc4ccc(-c5ccc(Cl)cc5)cc4o3)C(=O)O)cc2)cc1` [Example C161, N-{[6-(4-Chlorophenyl)-1-benzofuran-2-yl]carbonyl)-O-(4-ethylbenzyl)tyrosine], the melting point turned out to be 194 °C.

`O=C(NC(Cc1ccc(OCc2ccc(C(F)(F)F)cc2)cc1)C(=O)O)c1cc2ccc(-c3ccc(Cl)cc3)cc2o1` (stereo not shown) [Example C162] came in with a melting point of 203 °C.

Compound `O=C(NC(Cc1ccc(OCc2ccc(F)cc2)cc1)C(=O)O)c1nc2ccc(-c3ccc(Cl)cc3)cc2[nH]1` (stereo not shown) [Example C168] returned a melting point of 258 to 259 °C.

As for `O=C(/C=C/c1cccc(-c2ccc(Cl)cc2)n1)NC(Cc1ccc(OCc2ccccc2)cc1)C(=O)O` (stereo not shown) [Example D3, O-Benzyl-N-{3-[6-(4-chlorophenyl)pyridin-2-yl]acryloyl}tyrosine], the melting point lay in the range of 226 to 228 °C.

In turn, `O=C(/C=C/c1ccc(-c2ccc(Cl)cc2)o1)N[C@@H](Cc1ccc(OCc2ccccc2)cc1)C(=O)O` [Example D4, O-Benzyl-N-{(2E)-3-[5-(4-chlorophenyl)-2-furyl]propa-2-enoyl}tyrosine] registered a melting point of 224 to 225 °C.

The compound `O=C(N[C@@H](Cc1ccc(OCc2ccsc2)cc1)C(=O)O)c1cn2cc(-c3ccc(Cl)cc3)ccc2n1` [Example E2, N-{[6-(4-Chlorophenyl)imidazo[1,2-a]pyridin-2-yl]carbonyl}-O-(3-thienylmethyl)-L-tyrosine] returned a melting point of 203 °C.

Compound `O=C(N[C@@H](Cc1ccc(OCc2ccccc2)cc1)C(=O)O)c1cn2cc(-c3ccc(Cl)cc3)cnc2n1` [Example E4, O-Benzyl-N-{[6-(4-chlorophenyl)imidazo[1,2-a]pyrimidin-2-yl]carbonyl}tyrosine] registered a melting point of 252 to 253 °C.

`O=C(NC(Cc1ccc(OCc2ccccc2F)cc1)C(=O)O)c1cn2cc(-c3ccc(Cl)cc3)ccc2n1` (stereo not shown) [Example E6] came in with a melting point of 273 °C.

Compound `O=C(NC(Cc1ccc(OCc2ccc(F)cc2)cc1)C(=O)O)c1cn2cc(-c3ccc(Cl)cc3)ccc2n1` (stereo not shown) [Example E7] came in with a melting point of 267 °C.

The compound `O=C(N[C@@H](Cc1ccc(OCc2ccccc2)cc1)C(=O)O)c1cn2ccc(-c3ccc(Cl)cc3)cc2n1` [Example E8, O-Benzyl-N-{[7-(4-chlorophenyl)imidazo[1,2-a]pyridin-2-yl]carbonyl}tyrosine] yielded a melting point of 255 °C.

With `O=C(NC(Cc1ccc(OCc2cccc(F)c2)cc1)C(=O)O)c1cn2cc(-c3ccc(Cl)cc3)ccc2n1` (stereo not shown) [Example E10], the melting point was 252 °C.

Take `O=C(N[C@@H](Cc1ccc(F)cc1)C(=O)O)c1cn2cc(-c3ccc(Cl)cc3)ccc2n1` [Example E11, N-{[6-(4-Chlorophenyl)imidazo[1,2-a]pyridin-2-yl]carbonyl}-4-fluorophenylalanine]: the melting point was determined as 266 °C.

In the case of `O=C(O)CN(Cc1ccc(OCc2ccc(F)cc2)cc1)C(=O)c1cn2cc(-c3ccc(Cl)cc3)ccc2n1` [Example E13, N-{[6-(4-Chlorophenyl)imidazo[1,2-a]pyridin-2-yl]carbonyl}-N-{4-[(4-fluorobenzyl)oxy]benzyl}glycine], the melting point amounted to 206 °C.

`O=C(NC(Cc1ccc(OCc2ccccc2)cc1)c1nnn[nH]1)c1cn2cc(-c3ccc(Cl)cc3)ccc2n1` (stereo not shown) [Example E14, N-[2-[4-(Benzyloxy)phenyl]-1-(1H-tetrazol-5-yl)ethyl]-6-(4-chlorophenyl)imidazo[1,2-a]pyridine-2-carboxamide]: the melting point was determined as 241 °C.

In turn, `O=C(NC(Cc1ccc(OCc2ccccc2)cc1)c1nnn[nH]1)c1cn2nc(-c3ccc(Cl)cc3)ccc2n1` (stereo not shown) [Example E15, N-[2-[4-(Benzyloxy)phenyl]-1-(1H-tetrazol-5-yl)ethyl]-6-(4-chlorophenyl)imidazo[1,2-b]pyridazine-2-carboxamide] had a melting point of 186 °C.

`O=C(N[C@@H](Cc1ccc(OCC2CC2)cc1)C(=O)O)c1cn2cc(-c3ccc(Cl)cc3)ccc2n1` [Example E17, N-{[6-(4-Chlorophenyl)imidazo[1,2-a]pyridin-2-yl]carbonyl}-O-(cyclopropylmethyl)tyrosine] gave a melting point of 276 °C.

`O=C(N[C@@H](Cc1ccc(OCc2ccccc2)cc1)C(=O)O)c1cn2cc(-c3cccnc3)ccc2n1` [Example E20, O-Benzyl-N-[(6-(pyridin-3-yl)imidazo[1,2-a]pyridine-2-yl)carbonyl]tyrosine] displayed a melting point of 244 °C.

As for `O=C(N[C@@H](Cc1ccc(OCc2ccccc2)cc1)C(=O)O)c1cn2cc(-c3ccncc3)ccc2n1` [Example E21, O-Benzyl-N-[(6-(pyridine-4-yl)imidazo[1,2-a]pyridin-2-yl)carbonyl]tyrosine], the melting point came to 268 °C.

Compound `O=C(NC(Cc1ccc(OCc2ccccc2)cc1)c1noc(=O)[nH]1)c1cn2cc(-c3ccc(Cl)cc3)ccc2n1` (stereo not shown) [Example E30, N-[2-[4-(Benzyloxy)phenyl]-1-(5-oxo-4,5-dihydro-1,2,4-oxadiazol-3-yl)ethyl]-6-(4-chlorophenyl)imidazo[1,2-a]pyridine-2-carboxamide] showed a melting point of 167 °C.

For the compound `O=C(N[C@@H](Cc1ccc(OCc2ccoc2)cc1)C(=O)O)c1cn2cc(-c3ccc(Cl)cc3)ccc2n1` [Example E31, N-{[6-(4-Chlorophenyl)imidazo[1,2-a]pyridin-2-yl]carbonyl}-O-(3-furylmethyl)tyrosine], the melting point stood at 262 °C.

In turn, `O=C(N[C@@H](Cc1ccc(OCc2ccoc2)cc1)C(=O)O)c1cn2nc(-c3ccc(Cl)cc3)ccc2n1` [Example E32, N-{[6-(4-Chlorophenyl)imidazo[1,2-b]pyridazin-2-yl]carbonyl}-O-(3-furylmethyl)tyrosine] had a melting point of 220 °C.

In turn, `O=C(N[C@@H](Cc1ccc(OCc2ccoc2)cc1)C(=O)O)c1cn2ccc(-c3ccc(Cl)cc3)cc2n1` [Example E33, N-{[7-(4-Chlorophenyl)imidazo[1,2-a]pyridin-2-yl]carbonyl}-O-(3-furylmethyl)tyrosine] had a melting point of 243 °C.

Consider `O=C(N[C@@H](Cc1ccc(OCc2ccccc2)cc1)C(=O)O)c1cn2cc(/C=C/c3ccccc3)ccc2n1` [Example E34, O-Benzyl-N-({6-[(E)-2-phenylethenyl]imidazo[1,2-a]pyridin-2-yl}carbonyl)tyrosine], for which the melting point fell in the range of 262 to 263 °C.

Consider `Cc1cc2nc(C(=O)N[C@@H](Cc3ccc(OCc4ccccc4)cc3)C(=O)O)cn2cc1-c1ccc(Cl)cc1` [Example E35, O-Benzyl-N-{[6-(4-chlorophenyl)-7-methylimidazo[1,2-a]pyridin-2-yl]carbonyl}tyrosine], for which the melting point was in the range of 248 to 249 °C.

Compound `Cc1cc2nc(C(=O)NC(Cc3ccc(OCc4ccccc4)cc3)C(=O)O)cn2c(C)c1-c1ccc(Cl)cc1` (stereo not shown) [Example E36] had a melting point of 250 to 251 °C.

The compound `O=C(O)CN(Cc1ccc(OCc2ccccc2)cc1)C(=O)c1cn2cc(-c3ccc(Cl)cc3)ccc2n1` [Example E39, N-[4-(Benzyloxy)benzyl]-N-{[6-(4-chlorophenyl)imidazo[1,2-a]pyridin-2-yl]carbonyl}glycine] yielded a melting point of 213 to 214 °C.

Compound `O=C(N[C@@H](Cc1ccc(OCc2ccccc2)cc1)C(=O)O)c1cn2cc(-c3ccc(Cl)cc3Cl)ccc2n1` [Example E40, O-Benzyl-N-{[6-(2,4-dichlorophenyl)imidazo[1,2-a]pyridin-2-yl]carbonyl}tyrosine] returned a melting point of 237 to 239 °C.

Take `COc1ccc(/C=C/c2ccc3nc(C(=O)N[C@@H](Cc4ccc(OCc5ccccc5)cc4)C(=O)O)cn3c2)cc1` [Example E43, O-Benzyl-N-({6-[(E)-2-(4-methoxyphenyl)ethenyl]imidazo[1,2-a]pyridin-2-yl}carbonyl)tyrosine]: the melting point fell in the range of 262 to 263 °C.

Compound `O=C(NC(Cc1ccc(OCc2ccccc2)cc1)C(=O)O)c1cn2cc(-c3ccc(OC(F)(F)F)cc3)ccc2n1` (stereo not shown) [Example E44] registered a melting point of 270 to 271 °C.

In turn, `COc1cc(F)c(-c2ccc3nc(C(=O)N[C@@H](Cc4ccc(OCc5ccccc5)cc4)C(=O)O)cn3c2)c(F)c1` [Example E46, O-Benzyl-N-{[6-(2,6-difluoro-4-methoxyphenyl)imidazo[1,2-a]pyridin-2-yl]carbonyl}tyrosine] yielded a melting point of 219 °C.

For `O=C(N[C@@H](Cc1ccc(OCc2ccccc2)cc1)C(=O)O)c1ccc2nc(-c3ccc(Cl)cc3)c(Cl)n2c1` [Example E50, O-Benzyl-N-{[3-chloro-2-(4-chlorophenyl)imidazo[1,2-a]pyridin-6-yl]carbonyl}tyrosine], the melting point is 241 to 243 °C.

For `O=C(O)CN(Cc1ccc(OCc2ccccc2)cc1)C(=O)c1cn2ccc(-c3ccc(Cl)cc3)cc2n1` [Example E52, N-[4-(Benzyloxy)benzyl]-N-{[7-(4-chlorophenyl)imidazo[1,2-a]pyridin-2-yl]carbonyl}glycine], the melting point is 186 °C.

As to `O=C(O)CN(Cc1ccc(OCc2ccsc2)cc1)C(=O)c1cn2ccc(-c3ccc(Cl)cc3)cc2n1` [Example E53], the melting point is 187 °C.

Regarding `Cc1c(-c2ccc(Cl)cc2)nc2ccc(C(=O)N[C@@H](Cc3ccc(OCc4ccccc4)cc3)C(=O)O)cn12` [Example E55, O-Benzyl-N-{[2-(4-chlorophenyl)-3-methylimidazo[1,2-a]pyridin-6-yl]carbonyl}tyrosine], the melting point is 244 to 245 °C.

As to `O=C(N[C@@H](Cc1ccc(OCc2ccccc2)cc1)C(=O)O)c1cn2ccc(-c3ccc(Cl)cc3)cc2n1` [Example E56, O-Benzyl-N-{[7-(4-chlorophenyl)imidazo[1,2-a]pyridin-2-yl]carbonyl}-L-tyrosine], the melting point was 248 to 249 °C.

Turning to `O=C(N[C@@H](Cc1ccc(OCc2ccccc2)cc1)C(=O)O)c1cn2ccc(C#Cc3ccccc3)cc2n1` [Example E58, O-Benzyl-N-{[7-(phenylethynyl)imidazo[1,2-a]pyridin-2-yl]carbonyl}tyrosine], the melting point was 243 °C (dec.).

The melting point is the temperature of the solid-liquid transition.
